{"source": "patent US20250064845A1", "about": "“COMPOSITION COMPRISING FLAVIN ADENINE DINUCLEOTIDE (FAD), L-GSH, ATP AND MYRISTIC ACID, ALONE OR WITH A DRUG” (BIO EVEN, priority 2023, published 2025)", "key": {"[1]": {"system": "Pan02 transplanted pancreatic tumor", "conditions": "Pan02 tumor-bearing mice", "quoted_text": "Each mouse was subcutaneously treated with Pan02 cell suspension (5*10^5 cells) in the right axilla of the forelimb. […] Body weight was weighed every three days. The volume of the solid tumor was measured using a digital caliper every three days. The survival of animals was monitored and recorded daily.\n• The Pan02 mouse pancreatic cancer line was purchased from Shanghai Enzyme Research Biotechnology Co., Ltd. (Shanghai, China, Cell line No.: CC-Y2144) and stored at −80° C. after arrival. The Pan02 cells were cultured in DMEM supplemented with 10% FBS (v/v), 100 U/ml penicillin G (Sigma-Aldrich, USA), and 100 μg/mL streptomycin (Sigma-Aldrich, USA). The cultures were maintained in a humidified incubator at 37° C. and 5% CO2.\n• Different test drugs were administered intravenously (i.v.) and intraperitoneally (i.p.) once every other day at 10:00 am. A or B drugs were injected into the tail vein first, and 5-FU was injected intraperitoneally 24 h later.\n• Each mouse was subcutaneously treated with 0.1 mL cell suspension (5*10^5 cells) in the right axilla of the forelimb. When the tumor size increases to 100 mm^3-150 mm^3, mice were randomly divided into treatment groups: the model group (n=10), the A group (n=10), the B group (n=10), the 5-FU group (1.5 mg/kg, n=10), the A+5-FU group (1.5 mg/kg, n=10), the B+5-FU group (1.5 mg/kg, n=10) (Table 1).\n• Body weight was weighed every three days. The length and width of the solid tumor was measured with a digital caliper every three days. Tumor volume was calculated by the modified ellipsoidal formula: V =n/6 x (length x width2). The survival time of animals was monitored and recorded daily. […] The percent survival (%) was calculated using the following equations: percent survival (%)=[(10-numbers of mice died in each group)/10]*100%."}, "H22 transplanted tumor": {"system": "H22 transplanted tumor", "conditions": "H22 tumor-bearing mice", "experimental": "Body weight was weighed every three days.\n• Species: Rodent; Strain: BALB/c mice; Grade: SPF; Gender: Female; Age: 5-6 weeks.\n• The H22 mouse hepatoma cell line was purchased from Wuhan Procell Life Technology Co., Ltd. (Wuhan, China, Contract No.: XD-000-2022-03-30-0029) and stored at −80° C. after arrival.\nAscitic tumor fluid was then diluted with matrigel to adjust the cell concentration to 2*10^7 cells/mL."}}}
{"smiles": "O=c1[nH]cc(F)c(=O)[nH]1", "note": "[Composition 5-FU, 5-fluorouracil]", "values": [{"measurement": "tumor volume / antitumor effect", "setting": "[1]; 82 days, 5-FU 1.5 mg/kg", "result": "significantly decreased tumor volume"}, {"measurement": "mortality rate of mice on the 82nd day", "setting": "[1]; A or B 100 μL i.v., 5-FU 1.5 mg/kg i.p., once every other day, n=10", "result": 90, "unit": "%"}, {"measurement": "median survival time", "setting": "[1]; A or B 100 μL i.v., 5-FU 1.5 mg/kg i.p., once every other day, test 82 days, longer survival defaulted as 82 days", "result": 53.5, "unit": "days"}, {"measurement": "mortality rate of mice on the 22nd day", "setting": "H22 transplanted tumor; 5-FU alone 2.5 mg/kg i.p. once every two days", "result": 30, "unit": "%"}, {"measurement": "median survival time", "setting": "H22 transplanted tumor; 5-FU alone 2.5 mg/kg, longer survival defaulted as 22 days", "result": 22, "unit": "days"}]}
